Measured values: patent US6939668B2, “Compositions and methods for treatment of lung transplants” (priority 2001, dated 2005)

Columns and labels:
Assay type in all cases: cell-based
B. cepacia [1] = test: B. cepacia binding to normal human bronchial epithelial (NHBE) cells; settings: for % Binding of control / % Inhibition: NHBE cells, mean of 4 experiments (range)
Experimental: Normal human bronchial epithelial (NHBE) cells were grown in 48 well plates. […] Unbound bacteria were removed by washing 6 times with PBS and the bound bacteria were desorbed in 1 ml of 0.5% triton X-100 and quantitated by dilution plating. Results are shown in Table 3 and represent the mean of 4 independent experiments and the values in parenthesis represent the range of experimental values.

[2] = tested on: B. cepacia ATCC 25416 (genomovar I); test: microbe, parasite or virus in culture; set-up: inhibition: dose or concentration left out as unconfirmed
Experimental: (§1) B. cepacia (10^7-10^8 cfu) in 5 μl was added to the epithelial surface of tracheal explants, incubated for 2 h at 37° C. and gently washed with PBS 5 times to remove unbound bacteria.
(§2) Bound bacteria were desorbed with 0.25% triton X-100, serially diluted and plated on B. cepacia isolation agar, and incubated at 37° C. for 72 hours. Colonies were counted to calculate the number of bacteria bound per explant. When inhibitors were used, explants were incubated with inhibitors for 1 hour prior to the addition of bacteria.
(§3) Tracheal explants were preincubated for 1 hour with dextran 4K or 40K or xylitol. Bacteria (10^7 or 10^8 cfu) were then incubated for 2 hours with the tracheal explants and the number of bound bacteria per explant was determined as described above. Bacterial binding to explants preincubated with culture medium alone was considered as 0% inhibition (FIG. 1, each bar represents the mean of 14 to 17 independent experiments using trachea from 5 to 6 donors. Data were analyzed by the mixed model analysis of variance using MIXED procedure in SAS statistical software).
(§4) Explants were obtained from lungs removed from donors for transplantation. All lungs were preserved using LPD lung preservation solution (Perfadex®, Vitrolife, Gotenberg, Sweden) (Fischer et al. (2001), J. Thorac. Cardiovasc. Surg., v. 121, pp. 594-596). Segments of donor trachea that were trimmed off the lung before implantation were used in this study. Airway explants were prepared from donor tracheal segments, which were cut into approximately 4×4 mm^2 pieces, placed in transwells with the epithelial surface facing up and maintained in BEGM at an air/liquid interface for a maximum of 24 h at 37° C., 5% CO2. To evaluate the morphological status of the airway explants at this time, the explants were fixed in 10% buffered formalin and embedded in agar-paraffin. Five micron thick sections were stained with hematoxylin and eosin and examined under a light microscope (Leica, Scarborough, ON). • Effect of dextrans and xylitol on the viability of B. cepacia: B. cepacia (10^7 cfu) was suspended in BEGM containing 0, 2, 4, 6, 7 or 8% of dextran or xylitol for 2 h and then the number of viable bacteria was determined by colony counting method. • Binding of B. cepacia to airway explants: B. cepacia suspended in PBS (5 μl containing 10^8 cfu) was added in the center of the epithelial surface of airway explants and incubated for 2 h at 37° C., 5% CO2. The explants were washed gently 6 times with sterile PBS to remove unbound bacteria, and bound bacteria desorbed by incubating in 1 ml of 0.25% triton X-100 for 10 min at RT. Samples were serially diluted, and plated on B. cepacia isolation agar (Henry et al. (1997), J. Clin. Microbiol., v. 35, pp. 614-619). After 72 h of incubation at 37° C., bacterial colonies were counted to determine the number of bacteria (cfu) bound per explant.
(§5) In inhibition assays, epithelia of airway explants were pre-incubated with varying concentrations of potential inhibitors, dextran (4, 10 or 40 kDa) or xylitol for 1 h at 37° C., then bacteria were added and the assay continued as described above. Controls (no inhibitor added) in each experiment were set to a value of 100% binding, to calculate the % inhibition caused by inhibitors. Statistical analysis was carried out using Statsview and the unpaired student's t-test was used to calculate the p value. • Immunological detection of bound bacteria or mucin in airway explants: Paraffin sections of airway explants incubated with PBS or B. cepacia in presence or absence of inhibitors were deparaffinized, rehydrated and heated under pressure for 1.5 min in 10 mM citrate buffer pH 6.0 (Shi et al. (1991), J. Histochem. Cytochem., v. 39, pp. 741-748) to retrieve antigenic sites.

[3] = tested on: B. cepacia C5393 (genomovar II); test: microbe, parasite or virus in culture; set-up: inhibition: dose or concentration left out as unconfirmed
Experimental: as §1, §2, §3, §4, §5

[4] = tested on: B. cepacia CEP040 (genomovar V); test: microbe, parasite or virus in culture; set-up: inhibition: dose or concentration left out as unconfirmed
Experimental: as §1, §2, §3, §4, §5

[5] = tested on: B. cepacia FC473 (genomovar IV); test: microbe, parasite or virus in culture; set-up: inhibition: dose or concentration left out as unconfirmed
Experimental: as §1, §2, §3, §4, §5

[6] = tested on: B. cepacia isolate BC7 (genomovar III); test: microbe, parasite or virus in culture; set-up: inhibition: dose or concentration left out as unconfirmed; settings: for Percent Inhibition of binding to tracheal explants: isolate BC7, genomovar III
Experimental: as §1, §2, §3, §4, §5

B. cepacia [7] = test: Effect of dextrans and xylitol on the viability of B. cepacia; settings: 60 to 80 mg/ml, 2 h, compared to BEGM alone
Experimental: as §4, with “To evaluate the morphological status of the airway explants at this time, the explants were fixed in 10% buffered formalin and embedded in agar-paraffin.” left out, “The explants were washed gently 6 times with sterile PBS to remove unbound bacteria, and bound bacteria desorbed by incubating in 1 ml of 0.25% triton X-100 for 10 min at RT. Samples were serially diluted, and plated on B. cepacia isolation agar (Henry et al. (1997), J. Clin. Microbiol., v. 35, pp. 614-619).” left out

[8] = Burkholderia cepacia, Epithelial cell, read-out: % Inhibition of B. cepacia isolates binding to tracheal epithelial cells

CC(=O)N[C@H]1[C@H](O[C@H]2[C@H](O)[C@@H](NC(C)=O)[C@H](O[C@H]3[C@H](O)[C@@H](NC(C)=O)C(O)O[C@@H]3CO)O[C@@H]2CO)O[C@H](CO)[C@@H](O[C@@H]2O[C@H](CO)[C@@H](O[C@@H]3O[C@H](CO)[C@@H](O[C@@H]4O[C@H](CO)[C@@H](O)[C@H](O)[C@H]4NC(C)=O)[C@H](O)[C@H]3NC(C)=O)[C@H](O)[C@H]2NC(C)=O)[C@@H]1O (stereo partly shown) [chitohexose]
inhibitory effect on binding of B. cepacia to NHBE cells (B. cepacia [1]; 0-100 μg/ml): None of these sugars inhibited the binding

N[C@H]1[C@H](O[C@H]2[C@H](O)[C@@H](N)[C@H](O[C@H]3[C@H](O)[C@@H](N)[C@H](O[C@H]4[C@H](O)[C@@H](N)C(O)O[C@@H]4CO)O[C@@H]3CO)O[C@@H]2CO)O[C@H](CO)[C@@H](O)[C@@H]1O (stereo partly shown) [chitotetraose]
inhibitory effect on binding of B. cepacia to NHBE cells (B. cepacia [1]; 0-100 μg/ml): None of these sugars inhibited the binding

OC[C@@H](O)[C@H](O)[C@@H](O)CO [Xylitol]
inhibition ([2]; Burkholderia cepacia, ATCC25416, Epithelial cell, read-out: % Inhibition of B. cepacia isolates binding to tracheal epithelial cells): 82 ± 1.29% | Percent Inhibition of binding to tracheal explants ([2]; isolate ATCC 25416, genomovar I, inhibitor 8%): 84% | inhibition [3, 8]: 70 ± 6.78% | Percent Inhibition of binding to tracheal explants ([3]; isolate C5393, genomovar II, inhibitor 8%): 68% | inhibition [4, 8]: 70 ± 6.75% | Percent Inhibition of binding to tracheal explants ([4]; isolate CEP040, genomovar V, inhibitor 8%): 64% | inhibition [5, 8]: 70 ± 3.26% | Percent Inhibition of binding to tracheal explants ([5]; isolate FC473, genomovar IV, inhibitor 7%): 72% | inhibition of binding of BC7 to airway explants (in words) ([6]; 60 to 80 mg/ml, p<0.005 compared to PBS treated controls, FIG. 4b): significantly inhibited the binding | inhibition [6, 8]: 58 ± 10.7% | inhibition at 80000 µg/mL ([6]; Burkholderia cepacia, read-out: inhibition of binding of B. cepacia isolate BC7 to airway explants): 67% | inhibition of B. cepacia BC7 binding to tracheal explants (in words) ([6]; Example 1, FIG. 1, 1 hour preincubation, p value <0.0001): effective in causing inhibition of bacterial binding | Percent Inhibition of binding to tracheal explants ([6]; inhibitor 7%): 76% | Percent Inhibition of binding to tracheal explants ([6]; inhibitor 8%): 81% | viability of B. cepacia (B. cepacia [7]): no change in viability | % Binding of control (B. cepacia [1]; xylitol 6%): 64 (29-105) % | % Inhibition (B. cepacia [1]; xylitol 6%): 36 (0-71) % | % Binding of control (B. cepacia [1]; xylitol 7%): 56 (54-58) % | % Inhibition (B. cepacia [1]; xylitol 7%): 44 (42-44) % | % Binding of control (B. cepacia [1]; xylitol 8%): 33 (23-43) % | % Inhibition (B. cepacia [1]; xylitol 8%): 67 (57-77) % | % Binding of control (B. cepacia [1]; xylitol 10%): 23 (18-29) % | % Inhibition (B. cepacia [1]; xylitol 10%): 77 (71-82) %

O=C[C@H](O)[C@@H](O)[C@@H](O)[C@H](O)CO [Galactose]
inhibitory effect on binding of B. cepacia to NHBE cells (B. cepacia [1]; 0 to 1.8%/ml): None of these sugars inhibited the binding

chitobiose
inhibitory effect on binding of B. cepacia to NHBE cells (B. cepacia [1]; 0-100 μg/ml): None of these sugars inhibited the binding

CC(=O)N[C@@H]1[C@@H](O)[C@H](O[C@@H]2O[C@H](CO)[C@@H](O[C@@H]3O[C@H](CO)[C@@H](O[C@@H]4O[C@H](CO)[C@@H](O[C@@H]5O[C@H](CO)[C@@H](O)[C@H](O)[C@H]5NC(C)=O)[C@H](O)[C@H]4NC(C)=O)[C@H](O)[C@H]3NC(C)=O)[C@H](O)[C@H]2NC(C)=O)[C@@H](CO)O[C@H]1O [chitopentose]
inhibitory effect on binding of B. cepacia to NHBE cells (B. cepacia [1]; 0-100 μg/ml): None of these sugars inhibited the binding
